Broadly, the IC50 is the concentration needed to halve the response being measured.

Structures are written as SMILES.

Chain of human PAD4 (hPAD4) (Q9UM07 whole entry): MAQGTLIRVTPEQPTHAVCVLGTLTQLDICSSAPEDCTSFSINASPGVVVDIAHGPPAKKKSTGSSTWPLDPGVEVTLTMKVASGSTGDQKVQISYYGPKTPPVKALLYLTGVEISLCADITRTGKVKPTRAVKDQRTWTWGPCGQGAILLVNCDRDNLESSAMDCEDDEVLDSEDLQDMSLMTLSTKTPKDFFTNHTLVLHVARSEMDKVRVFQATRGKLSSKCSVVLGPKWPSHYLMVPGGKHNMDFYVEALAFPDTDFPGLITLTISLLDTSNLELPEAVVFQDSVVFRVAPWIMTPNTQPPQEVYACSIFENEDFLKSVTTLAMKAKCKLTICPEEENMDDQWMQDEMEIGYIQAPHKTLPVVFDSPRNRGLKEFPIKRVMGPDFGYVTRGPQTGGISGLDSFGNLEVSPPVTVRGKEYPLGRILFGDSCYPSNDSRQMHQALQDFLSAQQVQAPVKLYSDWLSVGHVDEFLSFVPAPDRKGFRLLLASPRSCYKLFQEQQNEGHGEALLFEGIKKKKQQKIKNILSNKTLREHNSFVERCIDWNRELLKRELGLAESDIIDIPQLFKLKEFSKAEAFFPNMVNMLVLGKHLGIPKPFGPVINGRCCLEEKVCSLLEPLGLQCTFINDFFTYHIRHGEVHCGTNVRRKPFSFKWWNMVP

The first test addresses human PAD4 (hPAD4) (Homo sapiens, UniProt Q9UM07). As to the kind of experiment: RFMS Human PAD4 Functional Assay. The test is classed as biochemical. Particulars: hPAD4 RFMS IC50, human PAD4, rapid-fire mass spectrum (RFMS) assay; 5 nM hPAD4, 250 μM BAEE. The procedure: RFMS Human PAD4 Functional Assay:
Compounds were solubilized in 100% DMSO to achieve a 10 mM compound concentration. Compound stock solutions were stored at RT. A series of dilutions were prepared in DMSO and mixed 8 times with 20 μL mixing volume. Final top concentration of compound in the assay is 50 μM.
0.13 μL of compound solution was added to 13 μL of 10 nM PAD4 in assay buffer. After 30 min 13 μl of 500 μM of BAEE was added in 25 mM hepes, pH 7.5, 5 mM NaCl, 1 mM DTT, 0.2 mg/ml BSA, 0.01% CHAPS, 50 μM Calcium, 5 μM TPEN was added and the reaction incubated for 90 min at 37° C. The enzymatic reaction was quenched by addition of 15 μl of 6.1N TCA, 100% Final Concentration is 20%, 35 μl of 8.5 mM phenyl glyoxal (final concentration 4 mM) is then added and the reaction is incubated for 30 min at 37° C.
After 30 minutes the plates are spun down to remove all precipitate. The enzyme reaction was quenched with an equal volume of methanol containing internal standard (modified citrulline). Samples were loaded onto the Rapid Fire RF300 system (Agilent) wherein they were first sipped for 1000 ms and then directly loaded to a C18 separations cartridge using a mixture of acetonitrile containing 0.01% formic acid for 3000 ms desalting. The flow rate of the mobile phase was 1.5 ml/min.
The dwell time for each transition was set at 200 ms, and the ESI voltage was used at 5500 with a source temperature of 400° C. Extracted ion peaks for each transition were integrated using the Rapid Fire Integrator software. Peak area of analyte was normalized with internal standard.).
`COc1cc(C(=O)N2C[C@H]3CC[C@@H]2[C@@H]3N)cc2nc(-c3cc4cccc(C5CC(C(=O)N6CC(F)C6)C5)c4n3CC3CC3)n(C)c12` (single isomer, unassigned; isomer 1) [Example 200]: the midpoint of inhibition, the IC50, lay at 0.021 µM.

As for `COc1cc(C(=O)N2C[C@H]3CC[C@@H]2[C@@H]3N)cc2nc(-c3cc4cccc(C5CC(C(=O)N6CCC6)C5)c4n3CC3CC3)n(C)c12` (single isomer, unassigned; isomer 1) [Example 202], inhibition was half-maximal at 0.024 µM (IC50).

`[2H]C([2H])([2H])N(C(=O)C1CC(c2cccc3cc(-c4nc5cc(C(=O)N6C[C@H]7CC[C@@H]6[C@@H]7N)cc(OC)c5n4C)n(CC4CC4)c23)C1)C([2H])([2H])[2H]` (single isomer, unassigned; isomer 2) [Example 196] came in with a concentration for half-maximal inhibition (IC50) of 0.053 µM.

In the case of `COc1cc(C(=O)N2C[C@H]3CC[C@@H]2[C@@H]3N)cc2nc(-c3cc4cccc(C5CC(C(=O)N6CC(F)C6)C5)c4n3CC3CC3)n(C)c12` (single isomer, unassigned; isomer 2) [Example 201], the half-maximal inhibitory concentration (IC50) turned out to be 0.057 µM.

Molecule `COc1cc(C(=O)N2C[C@H]3CC[C@@H]2[C@@H]3N)cc2nc(-c3cc4cccc(C5CC(C(=O)N6CCC6)C5)c4n3CC3CC3)n(C)c12` (single isomer, unassigned; isomer 2) [Example 203] registered an IC50 of 0.046 µM.

`COc1cc(C(=O)N2CC3CC[C@@H]2[C@@H]3N)cc2nc(-c3cc4cccc(-c5ccc6c(c5)C(C)(C)OC(=O)N6)c4n3CC3CC3)n(C)c12` (stereo in doubt) [Example 142, 6-(2-(5-((1R,4S)-7-amino-2-azabicyclo[2.2.1]heptane-2-carbonyl)-7-methoxy-1-methyl-1H-benzo[d]imidazol-2-yl)-1-(cyclopropylmethyl)-1H-indol-7-yl)-4,4-dimethyl-1,4-dihydro-2H-benzo[d][1,3]oxazin-2-one] gave a concentration for half-maximal inhibition (IC50) of 0.18 µM.

In turn, `COc1cc(C(=O)N2C[C@H]3CC[C@@H]2[C@@H]3N)cc2nc(-c3cc4cccc(C5CCOCC5)c4n3CC3CC3)n(C)c12` [Example 3, ((1R,4R,7R)-7-amino-2-azabicyclo[2.2.1]heptan-2-yl)(2-(1-(cyclopropylmethyl)-7-(tetrahydro-2H-pyran-4-yl)-1H-indol-2-yl)-7-methoxy-1-methyl-1H-benzo[d]imidazol-5-yl)methanone] gave an IC50 of 0.1 µM.

As for `COc1cc(C(=O)N2C[C@H]3CC[C@@H]2[C@@H]3N)cc2nc(-c3cc4cccc(C5CCNCC5)c4n3CC3CC3)n(C)c12` [Example 4, (1R,4R,7R)-2-{2-[1-(cyclopropylmethyl)-7-(piperidin-4-yl)-1H-indol-2-yl]-7-methoxy-1-methyl-1H-1,3-benzodiazole-5-carbonyl}-2-azabicyclo[2.2.1]heptan-7-amine], the 50% inhibitory concentration (IC50) was found to be 0.03 µM.

`CCCc1cccc2cc(-c3nc4cc(C(=O)N5C[C@H]6CC[C@@H]5[C@@H]6N)cc(OC)c4n3C)n(CC3CC3)c12` [Example 5, (1R,4R,7R)-2-{2-[1-(cyclopropylmethyl)-7-propyl-1H-indol-2-yl]-7-methoxy-1-methyl-1H-1,3-benzodiazole-5-carbonyl}-2-azabicyclo[2.2.1]heptan-7-amine] showed a 50% inhibitory concentration (IC50) of 0.187 µM.

`COc1cc(C(=O)N2C[C@H]3CC[C@@H]2[C@@H]3N)cc2nc(-c3cc4cccc(C5CCCC5)c4n3CC3CC3)n(C)c12` [Example 6, (1R,4R,7R)-2-{2-[7-cyclopentyl-1-(cyclopropylmethyl)-1H-indol-2-yl]-7-methoxy-1-methyl-1H-1,3-benzodiazole-5-carbonyl}-2-azabicyclo[2.2.1]heptan-7-amine] showed an IC50 of 0.19 µM.

Take `COc1cc(C(=O)N2C[C@H]3CC[C@@H]2[C@@H]3N)cc2nc(-c3cc4cccc(C5CCC5)c4n3CC3CC3)n(C)c12` [Example 7, (1R,4R,7R)-2-{2-[7-cyclobutyl-1-(cyclopropylmethyl)-1H-indol-2-yl]-7-methoxy-1-methyl-1H-1,3-benzodiazole-5-carbonyl}-2-azabicyclo[2.2.1]heptan-7-amine]: the half-maximal inhibitory concentration (IC50) was 0.158 µM.

In the case of `COc1cc(C(=O)N2C[C@H]3CC[C@@H]2[C@@H]3N)cc2nc(-c3cc4cccc(C5CNC5)c4n3CC3CC3)n(C)c12` [Example 8, (1R,4R,7R)-2-{2-[7-(azetidin-3-yl)-1-(cyclopropylmethyl)-1H-indol-2-yl]-7-methoxy-1-methyl-1H-1,3-benzodiazole-5-carbonyl}-2-azabicyclo[2.2.1]heptan-7-amine], the IC50 was found to be 0.073 µM.

On to `COc1cc(C(=O)N2C[C@H]3CC[C@@H]2[C@@H]3N)cc2nc(-c3cc4cccc(C5CC(N)C5)c4n3CC3CC3)n(C)c12` (stereo partly drawn) [Example 9, (1R,4R,7R)-2-{2-[7-(3-aminocyclobutyl)-1-(cyclopropylmethyl)-1H-indol-2-yl]-7-methoxy-1-methyl-1H-1,3-benzodiazole-5-carbonyl}-2-azabicyclo[2.2.1]heptan-7-amine], for which the IC50 is 0.04 µM.

For the molecule `COc1cc(C(=O)N2C[C@H]3CC[C@@H]2[C@@H]3N)cc2nc(-c3cc4cccc(CC5CCNCC5)c4n3CC3CC3)n(C)c12` [Example 10, (1R,4R,7R)-2-{2-[1-(cyclopropylmethyl)-7-[(piperidin-4-yl)methyl]-1H-indol-2-yl]-7-methoxy-1-methyl-1H-1,3-benzodiazole-5-carbonyl}-2-azabicyclo[2.2.1]heptan-7-amine], the IC50 is 0.128 µM.

In turn, `COc1cc(C(=O)N2C[C@H]3CC[C@@H]2[C@@H]3N)cc2nc(-c3cc4cccc(CCCN)c4n3CC3CC3)n(C)c12` [Example 11, (1R,4R,7R)-2-{2-[7-(3-aminopropyl)-1-(cyclopropylmethyl)-1H-indol-2-yl]-7-methoxy-1-methyl-1H-1,3-benzodiazole-5-carbonyl}-2-azabicyclo[2.2.1]heptan-7-amine] came in with an IC50 of 0.048 µM.

Consider `COc1cc(C(=O)N2C[C@H]3CC[C@@H]2[C@@H]3N)cc2nc(-c3cc4cccc(C5CCCNC5)c4n3CC3CC3)n(C)c12` (stereo partly drawn) [Example 12, (1R,4R,7R)-2-{2-[1-(cyclopropylmethyl)-7-(piperidin-3-yl)-1H-indol-2-yl]-7-methoxy-1-methyl-1H-1,3-benzodiazole-5-carbonyl}-2-azabicyclo[2.2.1]heptan-7-amine], for which the IC50 was 0.073 µM.

In turn, `COc1cc(C(=O)N2C[C@H]3CC[C@@H]2[C@@H]3N)cc2nc(-c3cc4cccc(C5CCC(N)CC5)c4n3CC3CC3)n(C)c12` (stereo partly drawn) [Example 13, (1R,4R,7R)-2-{2-[7-(4-aminocyclohexyl)-1-(cyclopropylmethyl)-1H-indol-2-yl]-7-methoxy-1-methyl-1H-1,3-benzodiazole-5-carbonyl}-2-azabicyclo[2.2.1]heptan-7-amine] came in with an IC50 of 0.016 µM.

Molecule `COc1cc(C(=O)N2C[C@H]3CC[C@@H]2[C@@H]3N)cc2nc(-c3cc4cccc(C[C@H]5CC[C@H](N)CC5)c4n3CC3CC3)n(C)c12` [Example 14, ((1R,4R,7R)-7-amino-2-azabicyclo[2.2.1]heptan-2-yl)(2-(7-(((trans)-4-aminocyclohexyl)methyl)-1-(cyclopropylmethyl)-1H-indol-2-yl)-7-methoxy-1-methyl-1H-benzo[d]imidazol-5-yl)methanone] showed an IC50 of 0.038 µM.

`COc1cc(C(=O)N2C[C@H]3CC[C@@H]2[C@@H]3N)cc2nc(-c3cc4cccc(C5CCN(C(C)=O)CC5)c4n3CC3CC3)n(C)c12` [Example 15, 1-[4-(2-{5-[(1R,4R,7R)-7-amino-2-azabicyclo[2.2.1]heptane-2-carbonyl]-7-methoxy-1-methyl-1H-1,3-benzodiazol-2-yl}-1-(cyclopropylmethyl)-1H-indol-7-yl)piperidin-1-yl]ethan-1-one] yielded a half-inhibitory concentration (IC50) of 0.02 µM.

The test is the same for the next values; noted with them: human PAD4, rapid-fire mass spectrum (RFMS) assay; 5 nM hPAD4, 250 μM BAEE; read-out: hPAD4 RFMS IC50.
As for `COc1cc(C(=O)N2C[C@H]3CC[C@@H]2[C@@H]3N)cc2nc(-c3cc4cccc(-c5cn(CCO)nn5)c4n3CC3CC3)n(C)c12` (stereo in doubt) [Example 108, 2-{4-[2-(5-{7-amino-2-azabicyclo[2.2.1]heptane-2-carbonyl}-7-methoxy-1-methyl-1H-1,3-benzodiazol-2-yl)-1-(cyclopropylmethyl)-1H-indol-7-yl]-1H-1,2,3-triazol-1-yl}ethan-1-ol], the IC50 was 0.073 µM.

`COc1cc(C(=O)N2C[C@H]3CC[C@@H]2[C@@H]3N)cc2nc(-c3cc4cccc(Br)c4n3CC3CC3)n(C)c12` [Example 1, ((1R,4R,7R)-7-amino-2-azabicyclo[2.2.1]heptan-2-yl)(2-(7-bromo-1-(cyclopropylmethyl)-1H-indol-2-yl)-7-methoxy-1-methyl-1H-benzo[d]imidazol-5-yl)methanone]: the IC50 amounted to 0.162 µM.

`COc1cc(C(=O)N2C[C@H]3CC[C@@H]2[C@@H]3N)cc2nc(-c3cc4cccc(CCCO)c4n3CC3CC3)n(C)c12` [Example 2, ((1R,4R,7R)-7-amino-2-azabicyclo[2.2.1]heptan-2-yl)(2-(1-(cyclopropylmethyl)-7-(3-hydroxypropyl)-1H-indol-2-yl)-7-methoxy-1-methyl-1H-benzo[d]imidazol-5-yl)methanone]: the 50% inhibitory concentration (IC50) is 0.032 µM.
